The record followed here is patent US8912169B2, “Beta-lactamase inhibitors” (VenatoRx Pharmaceuticals, Inc., priority 2012, dated 2014).

Where two headings read alike, the source gives them in different places. A value given as a limit tells only on which side of the number the result lay.

Holding throughout (type): biochemical
Assay [1] addresses T1, SHV-5 (Klebsiella pneumoniae, UniProt P0A3M1).
T1 construct: made in house; host or cells: E. coli BL21(DE3)
As to the kind of experiment: β-lactamase enzyme inhibition, SHV-5. Here is the method: (§1) For SHV-5, Kpc-2, p99AmpC and OXA-1 β-lactamases, E. coli BL21(DE3) bacterial cells carrying expression plasmids (expressed as native untagged proteins) for the individual β-lactamases were grown in 1 L of Superbroth (Teknova Inc. Hollister, Calif.) supplemented with 100 μg/mlkanamycin selection and 1×5052 (0.5% glycerol, 0.05% glucose and 0.2% α-lactose) at 35° C. for 18-20 hours. Cells were harvested by centrifugation (4,000×g, 4° C., 20 min), resuspended in 50 ml of 10 mM HEPES pH 7.5 ( 1/20 of the initial volume). The cells were lysed by sonication (5 pulses of 45 seconds) at 45 W on ice. The lysates were clarified by centrifugation at 10,000×g for 40 minutes at 4° C. Samples were diluted 5-fold in 50 mM sodium acetate pH 5.0, stored overnight at 4° C., after which they were centrifuged at 10,000×g for 30 minutes to clarify, and filtered through 0.45 μm filters. The samples were loaded onto a 5 ml Capto S sepharose cation exchange column (GE Healthcare) pre-equilibrated with 50 mM sodium acetate pH 5.0. The column was washed with 5 column volumes of 50 mM sodium acetate pH 5.0 to wash out unbound protein and a linear gradient of NaCl (0 to 500 mM) was used to elute the protein (over 16 CV) from the column. Fractions were assayed for β-lactamase activity using Centa (Calbiochem, Gibbstown, N.J.) or Nitrocefin (EMD Millipore chemicals, Darmstadt, Germany) as a reporter β-lactamase substrate for activity in the isolated fractions. Active fractions were pooled, concentrated and further purified by gel filtration chromatography on a Superdex 75 prep grade gel filtration column (GE Healthcare, Piscataway, N.J.) pre-equilibrated in 50 mM Hepes pH 7.5, 150 mM NaCl. Active fractions were pooled concentrated, quantitated by BCA protein determination (Thermo Scientific, Rockford, Ill.), dialyzed into PBS and frozen at −80° C. in 20% glycerol until use.
(§2) An equal volume of diluted enzyme stock was added, and the plates were incubated at 37° C. for 15 min. Nitrocefin was used as substrate for p99 AmpC, VIM-2 and OXA-1 and dispensed into each well at a final concentration of 100 μM. Absorbance at 486 nm was immediately monitored for 10 min using a Biotek Powerwave XS2 microplate spectrophotometer using the GENS software package (Biotek Instruments, Winooski Vt.). In an analogous fashion, imipenem was used as substrate for Kpc-2 and Cefotaxime was used for SHV-5, while changes in absorbance upon hydrolysis of the β-lactam ring were monitored at 300 nm and 260 nm respectively in UV-transparent 96-well microtiter assay plates. Maximum rates of hydrolysis were compared to those in control wells (without inhibitors), and percentages of enzyme inhibition were calculated for each concentration of inhibitor. The concentration of inhibitor needed to reduce the initial rate of hydrolysis of substrate by 50% (IC50) was calculated as the residual activity of β-lactamase at 486 nm using GraFit version 7 kinetics software package (Erithacus Software, Surrey, UK).
(§3) Using the methodology described above, examples of the current invention were evaluated for their ability to inhibit β-lactamase enzymes from all four Ambler classifications (A through D). […] NT=Not tested.

Assay [2] concerns the target T2, KPC-2 (Klebsiella pneumoniae, UniProt Q9F663).
T2 construct: made in house; host or cells: E. coli BL21(DE3)
The experiment in a line: β-lactamase enzyme inhibition, KPC-2. The settings on record: substrate imipenem, 300 nm; read-out: Class A KPC-2 IC50. The protocol:
as §1, §2, §3

Assay [3] deals with T3, VIM-2 (Escherichia coli, UniProt Q5U7L7).
T3 construct: made in house; host or cells: E. coli BL21(DE3)
The experiment in a line: β-lactamase enzyme inhibition, VIM-2. The following applies: substrate Nitrocefin 100 μM, 486 nm; read-out: Class B VIM-2 IC50. Here is the method:
For Vim-2 metallo β-lactamase, the procedure was identical with the following exceptions, first the protein was not pH adjusted to pH 5 with 50 mM sodium acetate, second, the chromatography step was changed to a 5 ml Q sepharose anion exchange column pre-equilibrated with 50 mM Hepes pH 7.5, and elution of the protein was achieved by a linear gradient of NaCl (0-600 mM). Finally, the VIM-2 purification required a second run (3rd step) on the Q sepharose anion exchange column to achieve acceptable purity (>90%).
as §2, §3

Assay [4] deals with T4, p99 AmpC (Enterobacter cloacae, UniProt P05364).
T4 construct: made in house; host or cells: E. coli BL21(DE3)
The experiment in a line: β-lactamase enzyme inhibition, p99 AmpC. Here is the method:
as §1, §2, §3

Assay [5] concerns the target T5, OXA-1 (Escherichia coli, UniProt P13661).
T5 construct: made in house; host or cells: E. coli BL21(DE3)
As to the kind of experiment: β-lactamase enzyme inhibition, OXA-1. The following applies: substrate Nitrocefin 100 μM, 486 nm; read-out: Class D OXA-1 IC50. The protocol:
as §1, §2, §3

The mark [6] stands for this setting: read-out: Class A SHV-5 IC50, substrate Cefotaxime, 260 nm.

Regarding `NC[C@H]1CC[C@H](C(=O)N[C@H]2Cc3cccc(C(=O)O)c3OB2O)CC1` [Example 1, (R)-3-(trans-4-(aminomethyl)cyclohexanecarboxamido)-2-hydroxy-3,4-dihydro-2H-benzo[e][1,2]oxaborinine-8-carboxylic acid], the IC50 in assay [1] is 1000 to 10000 nM; in assay [2], 100 to 1000 nM; in assay [3], 100 to 1000 nM; in assay [4], under 100 nM; in assay [5] it was under 100 nM.
`N[C@H]1CC[C@H](C(=O)N[C@H]2Cc3cccc(C(=O)O)c3OB2O)CC1` [Example 2, (R)-3-(trans-4-aminocyclohexanecarboxamido)-2-hydroxy-3,4-dihydro-2H-benzo[e][1,2]oxaborinine-8-carboxylic acid]: the IC50 is 10000 to 100000 nM in assay [1]; 100 to 1000 nM in assay [2]; 100 to 1000 nM in assay [3]; under 100 nM in assay [4]; 100 to 1000 nM in assay [5].
Take `NC[C@H]1CC[C@H](CC(=O)N[C@H]2Cc3cccc(C(=O)O)c3OB2O)CC1` [Example 3]: the IC50 in assay [1] was under 100 nM; in assay [2] it was 100 to 1000 nM; in assay [3], 1000 to 10000 nM; in assay [4], under 100 nM; in assay [5], under 100 nM.
As for `N=C(N)NC[C@H]1CC[C@H](CC(=O)N[C@H]2Cc3cccc(C(=O)O)c3OB2O)CC1` [Example 4, (R)-3-(2-(trans-4-(guanidinomethyl)cyclohexyl)acetamido)-2-hydroxy-3,4-dihydro-2H-benzo[e][1,2]oxaborinine-8-carboxylic acid], the IC50 in assay [1] is under 100 nM; in assay [2], under 100 nM; in assay [3], 100 to 1000 nM; in assay [4], under 100 nM; in assay [5] it was under 100 nM.
For the compound `CN(C)CC(=O)NC[C@H]1CC[C@H](CC(=O)N[C@H]2Cc3cccc(C(=O)O)c3OB2O)CC1` [Example 5, (R)-3-(2-(trans-4-((2-(dimethylamino)acetamido)methyl)cyclohexyl)acetamido)-2-hydroxy-3,4-dihydro-2H-benzo[e][1,2]oxaborinine-8-carboxylic acid], the IC50 is under 100 nM in assay [1]; under 100 nM in assay [2]; 1000 to 10000 nM in assay [3]; under 100 nM in assay [4]; under 100 nM in assay [5].
For the compound `N[C@H]1CC[C@H](CC(=O)N[C@H]2Cc3cccc(C(=O)O)c3OB2O)CC1` [Example 6, (R)-3-(2-(trans-4-aminocyclohexyl)acetamido)-2-hydroxy-3,4-dihydro-2H-benzo[e][1,2]oxaborinine-8-carboxylic acid], the IC50 is under 100 nM in assay [1]; under 100 nM in assay [2]; 100 to 1000 nM in assay [3]; under 100 nM in assay [4]; under 100 nM in assay [5].
As to `N[C@H]1CC[C@@H](CC(=O)N[C@H]2Cc3cccc(C(=O)O)c3OB2O)CC1` [Example 7, (R)-3-(2-(cis-4-aminocyclohexyl)acetamido)-2-hydroxy-3,4-dihydro-2H-benzo[e][1,2]oxaborinine-8-carboxylic acid], the IC50 in assay [1] is under 100 nM; in assay [2], under 100 nM; in assay [3] it was 1000 to 10000 nM; in assay [4], under 100 nM; in assay [5], 100 to 1000 nM.
For `CN(C)C[C@H]1CC[C@H](CC(=O)N(C)[C@H]2Cc3cccc(C(=O)O)c3OB2O)CC1` [Example 8, (R)-3-(2-(trans-4-((dimethylamino)methyl)cyclohexyl)-N-methylacetamido)-2-hydroxy-3,4-dihydro-2H-benzo[e][1,2]oxaborinine-8-carboxylic acid], the IC50 in assay [1] is under 100 nM; in assay [2], under 100 nM; in assay [3], 1000 to 10000 nM; in assay [4] it was under 100 nM; in assay [5], 100 to 1000 nM.
Regarding `N=C(N)N[C@H]1CC[C@H](CC(=O)N[C@H]2Cc3cccc(C(=O)O)c3OB2O)CC1` [Example 9, (R)-3-(2-(trans-4-guanidinocyclohexyl)acetamido)-2-hydroxy-3,4-dihydro-2H-benzo[e][1,2]oxaborinine-8-carboxylic acid], the IC50 in assay [1] was under 100 nM; in assay [2], under 100 nM; in assay [3], 100 to 1000 nM; in assay [4], under 100 nM; in assay [5] it was under 100 nM.
Take `NCCNC[C@H]1CC[C@H](CC(=O)N[C@H]2Cc3cccc(C(=O)O)c3OB2O)CC1` [Example 10, (R)-3-(2-(trans-4-((2-aminoethylamino)methyl)cyclohexyl)acetamido)-2-hydroxy-3,4-dihydro-2H-benzo[e][1,2]oxaborinine-8-carboxylic acid]: the IC50 is under 100 nM in assay [1]; under 100 nM in assay [2]; 100 to 1000 nM in assay [3]; under 100 nM in assay [4]; 100 to 1000 nM in assay [5].
On to `N=C(N)N1CCN([C@H]2CC[C@H](CC(=O)N[C@H]3Cc4cccc(C(=O)O)c4OB3O)CC2)CC1` [Example 24, (R)-3-(2-(trans-4-(4-carbamimidoylpiperazin-1-yl)cyclohexyl)acetamido)-2-hydroxy-3,4-dihydro-2H-benzo[e][1,2]oxaborinine-8-carboxylic acid], for which the IC50 in assay [1] (setting [6]) was under 100 nM; in assay [2], under 100 nM; in assay [3], 1000 to 10000 nM; in assay [5], under 100 nM.
For `NC1CN(C2CCC(CC(=O)N[C@H]3Cc4cccc(C(=O)O)c4OB3O)CC2)C1` (stereo partly drawn) [Example 35, (3R)-3-(2-(4-(3-aminoazetidin-1-yl)cyclohexyl)acetamido)-2-hydroxy-3,4-dihydro-2H-benzo[e][1,2]oxaborinine-8-carboxylic acid], the IC50 in assay [1] (setting [6]) was under 100 nM; in assay [2], under 100 nM; in assay [3] it was 100 to 1000 nM; in assay [5], under 100 nM.
`O=C(CC1CCC(NC2CNC2)CC1)N[C@H]1Cc2cccc(C(=O)O)c2OB1O` (stereo partly drawn) [Example 36, (3R)-3-(2-(4-(azetidin-3-ylamino)cyclohexyl)acetamido)-2-hydroxy-3,4-dihydro-2H-benzo[e][1,2]oxaborinine-8-carboxylic acid]: the IC50 was under 100 nM in assay [1] (setting [6]), under 100 nM in assay [2], 1000 to 10000 nM in assay [3] and under 100 nM in assay [5].
As to `N=C(N)NC1CN(C2CCC(CC(=O)N[C@H]3Cc4cccc(C(=O)O)c4OB3O)CC2)C1` (stereo partly drawn) [Example 41, (3R)-3-(2-(4-(3-guanidinoazetidin-1-yl)cyclohexyl)acetamido)-2-hydroxy-3,4-dihydro-2H-benzo[e][1,2]oxaborinine-8-carboxylic acid], the IC50 in assay [1] (setting [6]) is under 100 nM; in assay [2], under 100 nM; in assay [3], 100 to 1000 nM; in assay [5], under 100 nM.
For the compound `O=C(CC1CCC(O)CC1)N[C@H]1Cc2cccc(C(=O)O)c2OB1O` (stereo partly drawn) [Example 47, (3R)-2-hydroxy-3-(2-(4-hydroxycyclohexyl)acetamido)-3,4-dihydro-2H-benzo[e][1,2]oxaborinine-8-carboxylic acid], the IC50 in assay [1] (setting [6]) is under 100 nM; in assay [2], under 100 nM; in assay [3] it was 1000 to 10000 nM; in assay [5], under 100 nM.

In general, IC50 refers to the concentration that gives 50% inhibition.
